Laboratory results reported in PubChem BioAssay AID248 (DTP/NCI, 2004).
“And” between values parts separate entries of the source, which are not always exact repeats. Equal values may be shown once. Toxic doses and inconclusive results are not listed.

Test system: L1210 leukemia ip in BDF1 mice, survival T/C
Test: NCI In Vivo Anticancer Drug Screen. Data for tumor model L1210 Leukemia (intraperitoneal) in B6D2F1 (BDF1) mice
Conditions: endpoint: mean survival time, higher = longer survival
How it was run: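 Each compound was tested against a transplantable tumor grown in mice. The endpoint was survival, with treated animals benchmarked against vehicle controls as a simple ratio.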

[1] = dose: 25.0 mg/kg/injection, schedule: Q04DX002 (ip), vehicle: saline
[2] = dose: 50.0 mg/kg/injection, schedule: Q04DX002 (ip), vehicle: saline
[3] = dose: 100.0 mg/kg/injection, schedule: Q04DX002 (ip), vehicle: saline
[4] = dose: 100.0 mg/kg/injection, schedule: Q04DX002 (ip), vehicle: Klucel (hydroxypropylcellulose) (HPC)
[5] = dose: 100.0 mg/kg/injection, schedule: Q01DX001 (ip), vehicle: saline
[6] = dose: 200.0 mg/kg/injection, schedule: Q01DX001 (ip), vehicle: saline
[7] = dose: 400.0 mg/kg/injection, schedule: Q01DX001 (ip), vehicle: saline
[8] = dose: 100.0 mg/kg/injection, schedule: Q01DX001 (ip), vehicle: carboxymethylcellulose (CMC)
[9] = dose: 100.0 mg/kg/injection, schedule: Q01DX009 (ip), vehicle: saline with Tween-80
[10] = dose: 400.0 mg/kg/injection, schedule: Q01DX009 (ip), vehicle: saline with Tween-80

SMILES: Cc1nonc1C(=O)N(C)C
- T/C [1]: 98 % of control
- T/C [2]: 102 % of control
- T/C [3]: 102 % of control

SMILES: CCN(CC)Cc1ccccc1COC(=O)c1ccc(C)cc1
- T/C (dose: 25.0 mg/kg/injection, schedule: Q04DX002 (ip), vehicle: Klucel (hydroxypropylcellulose) (HPC)): 97 % of control
- T/C (dose: 50.0 mg/kg/injection, schedule: Q04DX002 (ip), vehicle: Klucel (hydroxypropylcellulose) (HPC)): 97 % of control
- T/C [4]: 94 % of control

SMILES: CN(C)CCNCC(Cc1ccccc1)c1ccccc1 (stereo not drawn)
- T/C [1]: 92 % of control
- T/C [2]: 92 % of control
- T/C [3]: 100 % of control and 89 % of control

SMILES: O=C(O)C(O)C(O)C(O)C(O)CO.O=C(O)C(O)C(O)C(O)C(O)CO.O=C(O)C(O)C(O)C(O)C(O)CO.[Ga] (stereo not drawn)
- T/C (dose: 50.0 mg/kg/injection, schedule: Q01DX001 (ip), vehicle: saline): 101 % of control
- T/C [5]: 103 % of control
- T/C [6]: 112 % of control
- T/C [7]: 100 % of control

SMILES: CCCn1c(=O)cc(C)c2ccccc21
- T/C (dose: 100.0 mg/kg/injection, schedule: Q01DX001 (ip), vehicle: other): 105 % of control
- T/C (dose: 200.0 mg/kg/injection, schedule: Q01DX001 (ip), vehicle: other): 90 % of control
- T/C (dose: 400.0 mg/kg/injection, schedule: Q01DX001 (ip), vehicle: other): 91 % of control

SMILES: Cc1ccc(NC(=O)N(CCCl)N=O)cc1C
- T/C (dose: 0.5 mg/kg/injection, schedule: Q01DX009 (ip), vehicle: carboxymethylcellulose (CMC)): 114 % of control
- T/C (dose: 1.0 mg/kg/injection, schedule: Q01DX009 (ip), vehicle: carboxymethylcellulose (CMC)): 119 % of control
- T/C (dose: 1.5 mg/kg/injection, schedule: Q01DX001 (ip), vehicle: carboxymethylcellulose (CMC)): 114 % of control
- T/C (dose: 2.0 mg/kg/injection, schedule: Q01DX009 (ip), vehicle: carboxymethylcellulose (CMC)): 103 % of control
- T/C (dose: 4.0 mg/kg/injection, schedule: Q01DX009 (ip), vehicle: carboxymethylcellulose (CMC)): 158 % of control
- T/C (dose: 6.0 mg/kg/injection, schedule: Q01DX001 (ip), vehicle: carboxymethylcellulose (CMC)): 119 % of control
- T/C (dose: 8.8 mg/kg/injection, schedule: Q01DX009 (ip), vehicle: carboxymethylcellulose (CMC)): 249 % of control
- T/C (dose: 13.3 mg/kg/injection, schedule: Q01DX009 (ip), vehicle: carboxymethylcellulose (CMC)): 159 % of control
- T/C (dose: 19.0 mg/kg/injection, schedule: Q01DX001 (ip), vehicle: carboxymethylcellulose (CMC)): 173 % of control
- T/C (dose: 29.0 mg/kg/injection, schedule: Q01DX001 (ip), vehicle: carboxymethylcellulose (CMC)): 214 % of control
- T/C (dose: 30.0 mg/kg/injection, schedule: Q01DX009 (ip), vehicle: carboxymethylcellulose (CMC)): 103 % of control
- T/C (dose: 44.0 mg/kg/injection, schedule: Q01DX001 (ip), vehicle: carboxymethylcellulose (CMC)): 210 % of control and 298 % of control
- T/C (dose: 66.0 mg/kg/injection, schedule: Q01DX001 (ip), vehicle: carboxymethylcellulose (CMC)): 257 % of control
- T/C [8]: 218 % of control and 263 % of control

SMILES: c1ccc(N=Nc2ccncc2)cc1
- T/C (dose: 6.25 mg/kg/injection, schedule: Q04DX003 (ip), vehicle: saline with Tween-80): 101 % of control
- T/C (dose: 12.5 mg/kg/injection, schedule: Q04DX003 (ip), vehicle: saline with Tween-80): 92 % of control
- T/C (dose: 25.0 mg/kg/injection, schedule: Q04DX003 (ip), vehicle: saline with Tween-80): 97 % of control

SMILES: OC(CC1(O)C(F)(F)C(F)(F)C1(F)F)c1ccccc1 (stereo not drawn)
- T/C [9]: 97 % of control
- T/C [10]: 100 % of control

SMILES: CN(Cc1cccc(Cl)c1)C(=O)Nc1ccccc1
- T/C [4]: 110 % of control
- T/C (dose: 200.0 mg/kg/injection, schedule: Q04DX002 (ip), vehicle: Klucel (hydroxypropylcellulose) (HPC)): 110 % of control
- T/C (dose: 400.0 mg/kg/injection, schedule: Q04DX002 (ip), vehicle: Klucel (hydroxypropylcellulose) (HPC)): 107 % of control

SMILES: COc1cc(N)c2ncccc2c1
- T/C (dose: 15.0 mg/kg/injection, schedule: Q01DX001 (ip), vehicle: saline): 98 % of control
- T/C (dose: 30.0 mg/kg/injection, schedule: Q01DX001 (ip), vehicle: saline): 97 % of control
- T/C (dose: 75.0 mg/kg/injection, schedule: Q01DX001 (ip), vehicle: carboxymethylcellulose (CMC)): 96 % of control

SMILES: CCN(CC)CCN(C)C
- T/C (dose: 100.0 mg/kg/injection, schedule: Q01DX009 (ip), vehicle: saline): 102 % of control
- T/C (dose: 100.0 mg/kg/injection, schedule: Q04DX003 (ip), vehicle: saline): 105 % of control
- T/C (dose: 200.0 mg/kg/injection, schedule: Q01DX009 (ip), vehicle: saline): 107 % of control
- T/C (dose: 200.0 mg/kg/injection, schedule: Q04DX003 (ip), vehicle: saline): 97 % of control
- T/C (dose: 400.0 mg/kg/injection, schedule: Q04DX003 (ip), vehicle: saline): 97 % of control

SMILES: c1ccc(N/N=C(\C(=N\Nc2ccccc2)c2ccccc2)c2ccccc2)cc1
- T/C (dose: 200.0 mg/kg/injection, schedule: Q01DX001 (ip), vehicle: Klucel (hydroxypropylcellulose) (HPC)): 87 % of control
- T/C (dose: 400.0 mg/kg/injection, schedule: Q01DX001 (ip), vehicle: Klucel (hydroxypropylcellulose) (HPC)): 86 % of control

SMILES: Cc1cn(C2OC(CO)C(O)C2O)c(=O)[nH]c1=O (stereo not drawn)
- T/C (dose: 3.75 mg/kg/injection, schedule: Q01DX Z (ip), vehicle: saline): 86 % of control
- T/C (dose: 6.25 mg/kg/injection, schedule: Q03HX024 (ip), vehicle: saline): 102 % of control
- T/C (dose: 7.5 mg/kg/injection, schedule: Q01DX Z (ip), vehicle: saline): 88 % of control
- T/C (dose: 12.5 mg/kg/injection, schedule: Q03HX024 (ip), vehicle: saline): 94 % of control
- T/C (dose: 25.0 mg/kg/injection, schedule: Q03HX024 (ip), vehicle: saline): 107 % of control
- T/C (dose: 30.0 mg/kg/injection, schedule: Q01DX Z (ip), vehicle: saline): 86 % of control
- T/C (dose: 50.0 mg/kg/injection, schedule: Q01DX001 (ip), vehicle: carboxymethylcellulose (CMC)): 116 % of control
- T/C (dose: 50.0 mg/kg/injection, schedule: Q03HX024 (ip), vehicle: saline): 102 % of control
- T/C (dose: 60.0 mg/kg/injection, schedule: Q01DX Z (ip), vehicle: saline): 92 % of control
- T/C [8]: 97 % of control
- T/C [5]: 87 % of control
- T/C (dose: 200.0 mg/kg/injection, schedule: Q01DX001 (ip), vehicle: carboxymethylcellulose (CMC)): 106 % of control
- T/C [6]: 92 % of control
- T/C (dose: 400.0 mg/kg/injection, schedule: Q01DX001 (ip), vehicle: carboxymethylcellulose (CMC)): 95 % of control
- T/C [7]: 90 % of control

SMILES: CC[N+]1(CC)CC[N+](CC)(CC)CC1 (tested in a mixture with another compound)
- T/C [3]: 102 % of control
- T/C (dose: 200.0 mg/kg/injection, schedule: Q04DX002 (ip), vehicle: saline): 97 % of control
- T/C (dose: 400.0 mg/kg/injection, schedule: Q04DX002 (ip), vehicle: saline): 102 % of control

SMILES: CCCCCCCC(=O)Nc1ccc(C)cc1C
- T/C (dose: 100.0 mg/kg/injection, schedule: Q04DX003 (ip), vehicle: saline with Tween-80): 95 % of control
- T/C (dose: 200.0 mg/kg/injection, schedule: Q04DX003 (ip), vehicle: saline with Tween-80): 98 % of control
- T/C (dose: 400.0 mg/kg/injection, schedule: Q04DX003 (ip), vehicle: saline with Tween-80): 94 % of control

SMILES: Cc1ccc([N+](=O)[O-])cc1NC(=O)NCCc1ccccc1
- T/C (dose: 100.0 mg/kg/injection, schedule: Q01DX009 (ip), vehicle: Klucel (hydroxypropylcellulose) (HPC)): 97 % of control
- T/C (dose: 200.0 mg/kg/injection, schedule: Q01DX009 (ip), vehicle: Klucel (hydroxypropylcellulose) (HPC)): 87 % of control
- T/C (dose: 400.0 mg/kg/injection, schedule: Q01DX009 (ip), vehicle: Klucel (hydroxypropylcellulose) (HPC)): 92 % of control

SMILES: CC(C)CC([NH-])C(=O)O.CC(C)CC([NH-])C(=O)O.CC(C)CC([NH-])C(=O)O.[Co+3] (stereo not drawn)
- T/C (dose: 12.5 mg/kg/injection, schedule: Q01DX009 (ip), vehicle: water): 106 % of control
- T/C (dose: 25.0 mg/kg/injection, schedule: Q01DX009 (ip), vehicle: water): 95 % of control
- T/C (dose: 50.0 mg/kg/injection, schedule: Q01DX009 (ip), vehicle: water): 98 % of control and 104 % of control
- T/C (dose: 100.0 mg/kg/injection, schedule: Q01DX009 (ip), vehicle: water): 117 % of control
- T/C (dose: 100.0 mg/kg/injection, schedule: Q04DX003 (ip), vehicle: water): 107 % of control and 98 % of control
- T/C (dose: 200.0 mg/kg/injection, schedule: Q01DX009 (ip), vehicle: water): 111 % of control
- T/C (dose: 200.0 mg/kg/injection, schedule: Q04DX003 (ip), vehicle: water): 110 % of control and 112 % of control
- T/C (dose: 400.0 mg/kg/injection, schedule: Q04DX003 (ip), vehicle: water): 102 % of control

SMILES: IC12CC3CC(CC(C3)C1)C2
- T/C [9]: 93 % of control
- T/C (dose: 200.0 mg/kg/injection, schedule: Q01DX009 (ip), vehicle: saline with Tween-80): 87 % of control
- T/C [10]: 97 % of control
